Reference: patent US20160120863A1, “SLC2A TRANSPORTER INHIBITORS” (IOMET PHARMA LTD., priority 2013, published 2016)

Experiments:
Format in all cases: cell-based
[1] = molecular target: T1, human GLUT2 (Homo sapiens, UniProt P11168); test: [3H]-deoxy-D-glucose uptake assay, GLUT2; details: [3H]-deoxy-D-glucose uptake in HEK293 cells stably expressing human GLUT2
T1 construct: expressed in transfected cells
T1 sequence (P11168 1-524): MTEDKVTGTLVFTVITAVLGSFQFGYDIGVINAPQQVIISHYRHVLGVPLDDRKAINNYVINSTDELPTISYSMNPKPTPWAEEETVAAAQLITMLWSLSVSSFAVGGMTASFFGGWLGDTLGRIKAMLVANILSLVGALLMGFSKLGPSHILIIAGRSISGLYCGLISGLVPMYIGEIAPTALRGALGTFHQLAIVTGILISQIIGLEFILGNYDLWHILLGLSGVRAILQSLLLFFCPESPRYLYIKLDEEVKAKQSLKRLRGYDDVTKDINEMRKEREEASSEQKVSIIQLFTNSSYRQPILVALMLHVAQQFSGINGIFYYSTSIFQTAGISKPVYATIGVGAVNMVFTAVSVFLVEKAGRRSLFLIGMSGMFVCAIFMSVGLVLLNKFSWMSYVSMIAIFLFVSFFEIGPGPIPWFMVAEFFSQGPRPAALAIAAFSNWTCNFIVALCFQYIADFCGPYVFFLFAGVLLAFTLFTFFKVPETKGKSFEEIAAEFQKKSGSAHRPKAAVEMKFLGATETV
Outline: (§1)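 HEK293 cells stably overexpressing human GLUT1 or GLUT2, seeded at 60,000 per well, treated with compounds in glucose-free uptake buffer for 30 min at 37 °C. [3H]-deoxy-D-glucose uptake quantified by scintillation counting after ice-cold PBS washes; IC50 determined.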

[2] = molecular target: T2, human GLUT1 (Homo sapiens, UniProt P11166); test: [3H]-deoxy-D-glucose uptake assay, GLUT1; details: [3H]-deoxy-D-glucose uptake in HEK293 cells stably expressing human GLUT1
T2 construct: expressed in transfected cells
T2 sequence (P11166 1-492): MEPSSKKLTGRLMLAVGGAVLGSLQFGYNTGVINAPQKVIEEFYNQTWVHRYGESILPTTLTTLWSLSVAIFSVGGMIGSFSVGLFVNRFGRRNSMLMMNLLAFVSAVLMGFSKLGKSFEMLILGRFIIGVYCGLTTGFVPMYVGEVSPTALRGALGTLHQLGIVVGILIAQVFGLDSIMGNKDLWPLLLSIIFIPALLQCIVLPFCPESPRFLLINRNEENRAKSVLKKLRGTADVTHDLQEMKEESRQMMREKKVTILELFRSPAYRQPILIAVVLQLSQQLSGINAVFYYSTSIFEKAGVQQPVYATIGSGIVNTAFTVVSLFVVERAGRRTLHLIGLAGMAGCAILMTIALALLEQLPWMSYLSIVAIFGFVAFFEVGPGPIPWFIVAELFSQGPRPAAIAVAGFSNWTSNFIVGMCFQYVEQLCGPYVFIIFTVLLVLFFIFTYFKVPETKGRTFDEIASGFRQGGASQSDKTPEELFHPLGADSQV
Outline: as §1

[3] = molecular target: T3, human GLUT4 (Homo sapiens, UniProt P14672); test: [3H]-deoxy-D-glucose uptake assay, GLUT4; details: [3H]-deoxy-D-glucose uptake in HEK293 cells stably expressing human GLUT4
T3 construct: expressed in transfected cells
T3 sequence (P14672 1-509): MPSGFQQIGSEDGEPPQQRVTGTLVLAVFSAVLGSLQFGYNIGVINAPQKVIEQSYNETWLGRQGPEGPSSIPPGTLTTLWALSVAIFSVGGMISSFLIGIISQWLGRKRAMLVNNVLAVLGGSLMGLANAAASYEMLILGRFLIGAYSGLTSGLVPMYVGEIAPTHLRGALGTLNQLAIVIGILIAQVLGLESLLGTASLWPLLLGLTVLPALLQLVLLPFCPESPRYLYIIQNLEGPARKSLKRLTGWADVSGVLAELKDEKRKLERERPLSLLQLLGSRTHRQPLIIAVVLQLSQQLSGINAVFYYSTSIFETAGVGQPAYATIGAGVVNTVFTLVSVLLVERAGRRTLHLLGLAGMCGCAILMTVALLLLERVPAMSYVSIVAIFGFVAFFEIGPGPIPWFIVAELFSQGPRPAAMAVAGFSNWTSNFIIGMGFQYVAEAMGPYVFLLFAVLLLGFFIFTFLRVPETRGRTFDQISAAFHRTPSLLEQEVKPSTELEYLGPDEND
Procedure: (§2) HEK293 cells were engineered to stably express either human GLUT1, GLUT2, GLUt3 or GLUT4 by transfection with the pReceiver-Lv105 plasmid, containing either hGLUT1, hGLUT2, hGLUT3, or hGLUT4 gene constructs with lipofectamine 2000, hGLUT1- hGLUT2- hGLUT3- or hGLUT4-overexpressing polyclonal populations were isolated under purinomycin selective pressure (1 μg/ml) and maintained in Dulbecco's modified Eagle's medium supplemented with 1 μg/ml purinomycin+10% foetal bovine serum (FBS).
(§3) 60,000 cells per well were seeded overnight into poly-D-lysine coasted 96-well plates. Following media removal, cells were washed twice in warm glucose-free uptake buffer (25 mM HEPES/KOH pH 7.4, 125 mM NaCl, 4.8 mM KCl, 1.2 mM MgSO4, 1.2 mM CaCl2, 1.2 mM KH2PO4). 90 μl of test compounds were added in glucose-free uptake buffer and cells were incubated at 37° C. for 30 min. 10 μl of [3H]-deoxy-D-glucose (0.25 μCi, 125 μM final assay concentration) was then added per well in glucose-free uptake buffer and uptake was allowed to proceed at 37° C. for 30 min.
(§4) Cells were then washed twice with ice-cold PBS and 100 μl of Microscint-20 was added per well. Glucose uptake was quantified with a scintillation counter. The half maximal inhibitory concentration (IC50) (a measure of the effectiveness of the test compound in inhibiting glucose uptake) was determined.

[4] = molecular target: T4, human GLUT3 (Homo sapiens, UniProt P11169); test: [3H]-deoxy-D-glucose uptake assay, GLUT3; details: [3H]-deoxy-D-glucose uptake in HEK293 cells stably expressing human GLUT3
T4 construct: expressed in transfected cells
T4 sequence (P11169 1-496): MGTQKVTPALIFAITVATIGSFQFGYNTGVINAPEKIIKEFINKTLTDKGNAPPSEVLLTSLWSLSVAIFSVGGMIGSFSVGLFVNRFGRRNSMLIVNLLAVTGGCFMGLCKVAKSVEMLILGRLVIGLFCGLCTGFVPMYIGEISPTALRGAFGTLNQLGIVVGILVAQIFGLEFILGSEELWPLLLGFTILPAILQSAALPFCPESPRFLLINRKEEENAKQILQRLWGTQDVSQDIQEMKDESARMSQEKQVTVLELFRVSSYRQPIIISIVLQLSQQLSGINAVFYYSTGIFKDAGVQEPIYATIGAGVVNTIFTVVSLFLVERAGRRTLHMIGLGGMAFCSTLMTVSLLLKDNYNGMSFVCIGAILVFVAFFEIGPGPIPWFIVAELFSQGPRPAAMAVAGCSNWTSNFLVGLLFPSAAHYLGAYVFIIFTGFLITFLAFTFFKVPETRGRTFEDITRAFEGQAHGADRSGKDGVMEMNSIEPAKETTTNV
Procedure: as §2, §3, §4

Compound	GLUT2 pIC50 [1]	GLUT1 pIC50 [2]	GLUT4 pIC50 [3]	GLUT3 pIC50 [4]
O=C(CO)N1CCN(Cc2c(-c3ccc(Cl)cc3Cl)nc3cnc(C4CC4)cn23)CC1 [Compound 321]	+++ (pIC50 ≧ 6.00)	+++ (pIC50 ≧ 6.00)	+++ (pIC50 ≧ 6.00)	+++ (pIC50 ≧ 6.00)
CC(C)(O)C(=O)N1CCN(Cc2c(-c3ccc(Cl)cc3Cl)nc3cnc(C4CC4)cn23)CC1 [Compound 322]	+++ (pIC50 ≧ 6.00)	+++ (pIC50 ≧ 6.00)	+++ (pIC50 ≧ 6.00)	+++ (pIC50 ≧ 6.00)
CC(=O)N1CCN(Cc2c(-c3ccc(Cl)cc3)nc3ccc(N4CCCCS4(=O)=O)cn23)CC1 [Compound 326]	+++ (pIC50 ≧ 6.00)	+++ (pIC50 ≧ 6.00)	+++ (pIC50 ≧ 6.00)	+++ (pIC50 ≧ 6.00)
CC(=O)N1CCN(Cc2c(-c3ccc(Cl)cc3Cl)nc3ccc(N(C)S(C)(=O)=O)cn23)CC1 [Compound 333]	+++ (pIC50 ≧ 6.00)	+++ (pIC50 ≧ 6.00)	+++ (pIC50 ≧ 6.00)	+++ (pIC50 ≧ 6.00)
CS(=O)(=O)Nc1ccc2nc(-c3ccc(Cl)cc3Cl)c(CN3CCN(C(=O)C4COC4)CC3)n2c1 [Compound 334]	++ (pIC50 5.00-5.99)	+++ (pIC50 ≧ 6.00)	+++ (pIC50 ≧ 6.00)	+++ (pIC50 ≧ 6.00)
CN(c1ccc2nc(-c3ccc(Cl)cc3Cl)c(CN3CCN(C(=O)C4COC4)CC3)n2c1)S(C)(=O)=O [Compound 335]	+++ (pIC50 ≧ 6.00)	+++ (pIC50 ≧ 6.00)	+++ (pIC50 ≧ 6.00)	+++ (pIC50 ≧ 6.00)
COCC(=O)N1CCN(Cc2c(-c3ccc(Cl)cc3Cl)nc3ccc(NS(C)(=O)=O)cn23)CC1 [Compound 336]	++ (pIC50 5.00-5.99)	+++ (pIC50 ≧ 6.00)	+++ (pIC50 ≧ 6.00)	+++ (pIC50 ≧ 6.00)
CC(=O)N1CCN(Cc2c(-c3ccc(Cl)cc3Cl)nc3ccc(N4CCCS4(=O)=O)cn23)CC1 [Compound 339]	+++ (pIC50 ≧ 6.00)	+++ (pIC50 ≧ 6.00)	+++ (pIC50 ≧ 6.00)	+++ (pIC50 ≧ 6.00)
CC(=O)N1CCN(Cc2c(-c3ccc(Cl)cc3)nc3ccc(N(C)S(=O)(=O)C(C)C)cn23)CC1 [Compound 340]	++ (pIC50 5.00-5.99)	+++ (pIC50 ≧ 6.00)	+++ (pIC50 ≧ 6.00)	+++ (pIC50 ≧ 6.00)
CCCS(=O)(=O)N(C)c1ccc2nc(-c3ccc(Cl)cc3)c(CN3CCN(C(C)=O)CC3)n2c1 [Compound 341]	+− (pIC50 < 4.00)	+++ (pIC50 ≧ 6.00)	+++ (pIC50 ≧ 6.00)	+++ (pIC50 ≧ 6.00)
